The assay addresses T1, cellular PARG (Homo sapiens, UniProt Q86W56).
T1 construct: endogenous in cells; host or cells: HeLa
The assay can be described thus: Nuclear PAR accumulation assay (immunofluorescence high-content imaging, MMS-treated HeLa cells). Particulars: 1 hour compound then MMS 50 μg/mL for an additional hour. Type of assay: cell-based. As to the method:
HeLa cells were plated at 15,000 cells/well in a 96-well plate the day before compound treatment and then treated with varying concentrations of test compound and incubated for 1 hour at 37° C.+5% CO2. Following test compound treatment, methylmethane sulfonate (MMS) was added to a final concentration of 50 μg/mL and the cells were incubated for an additional hour. Following treatment, the cells were fixed with ice cold 95% methanol and the plates sealed and placed at -20° C. for 15 minutes. The cells were then washed once with phosphate buffered saline (PBS) and permeabilized with 0.10% Triton-X 100 for 20 minutes at room temperature. […] The cells were then washed three times with PBS before incubation with a fluorescently conjugated goat anti-mouse antibody (Invitrogen A32723) diluted 1:500 in 5% FBS+0.1% Tween-20+PBS for 1 hour at room temperature. The cells were again washed three times with PBS and the nuclei labeled by incubating with 1 μg/mL DAPI (4′,6-diamidino-2-phenylindole). Nuclear PAR accumulation was evaluated using high-content fluorescence microscopy. Four fields for each well were acquired at 20× magnification resulting in at least 1,000 cells analyzed per well. […] Both the average intensity per nucleus and percent PAR positive cells were quantified. […] Concentration-response-curves and IC50 values were generated using four parameter logistic curve fit software.
Representative data for exemplary compounds is presented in Table 32, Table 33 and Table 34.

23 molecules from patent US20260285875A1, “INHIBITORS OF PARG” (858 Therapeutics, Inc., priority 2023, published 2026) can be followed below.

T1 sequence (Q86W56 whole entry): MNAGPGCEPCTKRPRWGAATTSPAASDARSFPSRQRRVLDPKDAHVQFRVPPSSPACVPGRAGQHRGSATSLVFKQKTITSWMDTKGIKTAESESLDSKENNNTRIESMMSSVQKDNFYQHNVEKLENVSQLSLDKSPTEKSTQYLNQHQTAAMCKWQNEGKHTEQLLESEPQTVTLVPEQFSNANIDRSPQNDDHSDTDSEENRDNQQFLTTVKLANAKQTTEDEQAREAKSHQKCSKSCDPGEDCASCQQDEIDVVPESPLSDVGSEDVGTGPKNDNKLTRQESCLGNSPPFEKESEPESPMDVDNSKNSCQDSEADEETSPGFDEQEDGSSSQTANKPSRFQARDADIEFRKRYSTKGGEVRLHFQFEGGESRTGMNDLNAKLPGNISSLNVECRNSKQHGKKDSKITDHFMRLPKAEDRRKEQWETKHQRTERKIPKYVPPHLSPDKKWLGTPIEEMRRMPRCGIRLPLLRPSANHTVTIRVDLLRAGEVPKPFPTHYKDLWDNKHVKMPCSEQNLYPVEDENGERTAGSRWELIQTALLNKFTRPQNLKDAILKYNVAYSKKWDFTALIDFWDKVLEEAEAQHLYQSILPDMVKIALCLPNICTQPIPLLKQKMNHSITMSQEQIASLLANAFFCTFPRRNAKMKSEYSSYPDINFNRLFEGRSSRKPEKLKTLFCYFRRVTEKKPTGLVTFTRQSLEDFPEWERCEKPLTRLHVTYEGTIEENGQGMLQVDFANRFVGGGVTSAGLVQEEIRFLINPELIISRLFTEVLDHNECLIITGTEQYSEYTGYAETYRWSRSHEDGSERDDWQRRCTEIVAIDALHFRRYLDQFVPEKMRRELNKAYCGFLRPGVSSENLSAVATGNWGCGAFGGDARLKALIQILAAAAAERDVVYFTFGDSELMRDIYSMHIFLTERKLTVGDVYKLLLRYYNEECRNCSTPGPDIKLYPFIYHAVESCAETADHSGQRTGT

Usually IC50 stands for the point on the concentration scale where inhibition reaches its midpoint. Read a high IC50 as a need for much substance. `C[C@@H]1CN=C2N(Cc3cnn(C)c3)C(=O)c3cc(S(=O)(=O)NC4(C)CC4)cc(N4CCC(O)CC4)c3N21` [Example 27, (R)-9-(4-hydroxypiperidin-1-yl)-1-methyl-4-((1-methyl-1H-pyrazol-4-yl)methyl)-N-(1-methylcyclopropyl)-5-oxo-1,2,4,5-tetrahydroimidazo[1,2-a]quinazoline-7-sulfonamide] had an IC50 of 100 to 1000 nM.

In turn, `Cn1cc(CN2C(=O)c3cc(S(=O)(=O)NC4(C)CC4)ccc3N3C2=NC[C@H]3COc2ccccc2)cn1` [Example 28, (S)-4-((1-methyl-1H-pyrazol-4-yl)methyl)-N-(1-methylcyclopropyl)-5-oxo-1-(phenoxymethyl)-1,2,4,5-tetrahydroimidazo[1,2-a]quinazoline-7-sulfonamide] displayed an IC50 of under 100 nM.

For `Cn1cc(CN2C(=O)c3cc(S(=O)(=O)NC4(C)CC4)ccc3N3C2=NC[C@H]3COc2ccc(F)cc2)cn1` [Example 29, (S)-1-((4-fluorophenoxy)methyl)-4-((1-methyl-1H-pyrazol-4-yl)methyl)-N-(1-methylcyclopropyl)-5-oxo-1,2,4,5-tetrahydroimidazo[1,2-a]quinazoline-7-sulfonamide], the half-inhibitory concentration (IC50) is under 100 nM.

The molecule `Cn1cc(CN2C(=O)c3cc(S(=O)(=O)NC4(C)CC4)ccc3N3C2=NC[C@H]3COc2cccc(F)c2)cn1` [Example 30, (S)-1-((3-fluorophenoxy)methyl)-4-((1-methyl-1H-pyrazol-4-yl)methyl)-N-(1-methylcyclopropyl)-5-oxo-1,2,4,5-tetrahydroimidazo[1,2-a]quinazoline-7-sulfonamide] registered an IC50 of under 100 nM.

On to `CN(C)CC#C[C@@H]1CN=C2N(Cc3cnn(C)c3)C(=O)c3cc(S(=O)(=O)NC4(C)CC4)ccc3N21` [Example 31, (R)-1-(3-(dimethylamino)prop-1-yn-1-yl)-4-((1-methyl-1H-pyrazol-4-yl)methyl)-N-(1-methylcyclopropyl)-5-oxo-1,2,4,5-tetrahydroimidazo[1,2-a]quinazoline-7-sulfonamide], for which the IC50 is under 100 nM.

The molecule `Cc1cc(F)ccc1-c1cc(S(=O)(=O)NC2(C)CC2)cc2c1N1C(=NC[C@H]1C)N(Cc1cnn(C)c1)C2=O` [Example 32, (R)-9-(4-fluoro-2-methylphenyl)-1-methyl-4-((1-methyl-1H-pyrazol-4-yl)methyl)-N-(1-methylcyclopropyl)-5-oxo-1,2,4,5-tetrahydroimidazo[1,2-a]quinazoline-7-sulfonamide] returned an IC50 of under 100 nM.

As to `C[C@@H]1CN=C2N(C)C(=O)c3cc(S(=O)(=O)NC4(C)CC4)cc(N4CCN(C(=O)N(C)C)CC4)c3N21` [Example 33, (R)-4-(1,4-dimethyl-7-(N-(1-methylcyclopropyl)sulfamoyl)-5-oxo-1,2,4,5-tetrahydroimidazo[1,2-a]quinazolin-9-yl)-N,N-dimethylpiperazine-1-carboxamide], the IC50 is under 100 nM.

Molecule `CN1C(=O)c2cc(S(=O)(=O)NC3(C)CC3)cc(Br)c2N2C1=NC[C@H]2C#CC1CC1` [Example 34, (R)-9-bromo-1-(cyclopropylethynyl)-4-methyl-N-(1-methylcyclopropyl)-5-oxo-1,2,4,5-tetrahydroimidazo[1,2-a]quinazoline-7-sulfonamide] yielded an IC50 of under 100 nM.

For the molecule `Cn1cc(C#C[C@@H]2CN=C3N(Cc4cnn(C)c4)C(=O)c4cc(S(=O)(=O)NC5(C)CC5)ccc4N32)cn1` [Example 35, (R)-1-((1-methyl-1H-pyrazol-4-yl)ethynyl)-4-((1-methyl-1H-pyrazol-4-yl)methyl)-N-(1-methylcyclopropyl)-5-oxo-1,2,4,5-tetrahydroimidazo[1,2-a]quinazoline-7-sulfonamide], the IC50 was under 100 nM.

Regarding `Cn1cc(CN2C(=O)c3cc(S(=O)(=O)NC4(C)CC4)ccc3N3C2=NC[C@H]3C#Cc2ccccc2)cn1` [Example 36, (R)-4-((1-methyl-1H-pyrazol-4-yl)methyl)-N-(1-methylcyclopropyl)-5-oxo-1-(phenylethynyl)-1,2,4,5-tetrahydroimidazo[1,2-a]quinazoline-7-sulfonamide], the IC50 is under 100 nM.

In the case of `C[C@@H]1CN=C2N(Cc3cnn(C)c3)C(=O)c3cc(S(=O)(=O)NC4(C)CC4)cc(N4CCC(C(=O)N(C)C)CC4)c3N21` [Example 37, (R)-N,N-dimethyl-1-(1-methyl-4-((1-methyl-1H-pyrazol-4-yl)methyl)-7-(N-(1-methylcyclopropyl)sulfamoyl)-5-oxo-1,2,4,5-tetrahydroimidazo[1,2-a]quinazolin-9-yl)piperidine-4-carboxamide], the half-inhibitory concentration (IC50) is 100 to 1000 nM.

On to `C#C[C@@H]1CN=C2N(C)C(=O)c3cc(S(=O)(=O)NC4(C)CC4)cc(Br)c3N21` [Example 38, (R)-9-bromo-1-ethynyl-4-methyl-N-(1-methylcyclopropyl)-5-oxo-1,2,4,5-tetrahydroimidazo[1,2-a]quinazoline-7-sulfonamide], for which the IC50 was under 100 nM.

`Cn1cc(CN2C(=O)c3cc(S(=O)(=O)NC4(C)CC4)ccc3N3C2=NC[C@H]3CC(F)(F)F)cn1` [Example 39, (R)-4-((1-methyl-1H-pyrazol-4-yl)methyl)-N-(1-methylcyclopropyl)-5-oxo-1-(2,2,2-trifluoroethyl)-1,2,4,5-tetrahydroimidazo[1,2-a]quinazoline-7-sulfonamide]: the IC50 was under 100 nM.

Molecule `Cn1cc(CN2C(=O)c3cc(S(=O)(=O)NC4(C)CC4)ccc3N3C2=NC[C@H]3/C=C/c2ccccc2)cn1` [Example 40, (R,E)-4-((1-methyl-1H-pyrazol-4-yl)methyl)-N-(1-methylcyclopropyl)-5-oxo-1-styryl-1,2,4,5-tetrahydroimidazo[1,2-a]quinazoline-7-sulfonamide] showed an IC50 of under 100 nM.

For `C[C@@H]1CN=C2N(Cc3cnn(C)c3)C(=O)c3cc(S(=O)(=O)NC4(C)CC4)sc3N21` [Example 41, (R)-8-methyl-5-((1-methyl-1H-pyrazol-4-yl)methyl)-N-(1-methylcyclopropyl)-4-oxo-4,5,7,8-tetrahydroimidazo[1,2-a]thieno[3,2-e]pyrimidine-2-sulfonamide], the IC50 lay within 100 to 1000 nM.

For `CC#C[C@@H]1CN=C2N(C)C(=O)c3cc(S(=O)(=O)NC4(C)CC4)cc(Br)c3N21` [Example 42, (R)-9-bromo-4-methyl-N-(1-methylcyclopropyl)-5-oxo-1-(prop-1-yn-1-yl)-1,2,4,5-tetrahydroimidazo[1,2-a]quinazoline-7-sulfonamide], the IC50 was under 100 nM.

For the molecule `[2H]C([2H])(c1cnn(C)c1)N1C(=O)c2cc(S(=O)(=O)NC3(C)CC3)ccc2N2C1=NC[C@H]2C#C` [Example 43, (R)-1-ethynyl-4-((1-methyl-1H-pyrazol-4-yl)methyl-d2)-N-(1-methylcyclopropyl)-5-oxo-1,2,4,5-tetrahydroimidazo[1,2-a]quinazoline-7-sulfonamide], the IC50 is under 100 nM.

Turning to `Cn1cc(CN2C(=O)c3cc(S(=O)(=O)NC4(C)CC4)ccc3N3C2=NC[C@H]3C2CCOCC2)cn1` [Example 44, (R)-4-((1-methyl-1H-pyrazol-4-yl)methyl)-N-(1-methylcyclopropyl)-5-oxo-1-(tetrahydro-2H-pyran-4-yl)-1,2,4,5-tetrahydroimidazo[1,2-a]quinazoline-7-sulfonamide], the IC50 fell in the range of 100 to 1000 nM.

`Cn1cc(CN2C(=O)c3cc(S(=O)(=O)NC4(C)CC4)ccc3N3C2=NC[C@H]3C2CCC(F)(F)CC2)cn1` [Example 45, (R)-1-(4,4-difluorocyclohexyl)-4-((1-methyl-1H-pyrazol-4-yl)methyl)-N-(1-methylcyclopropyl)-5-oxo-1,2,4,5-tetrahydroimidazo[1,2-a]quinazoline-7-sulfonamide]: the IC50 is under 100 nM.

`CN(C)C(=O)N1CCN(c2cc(S(=O)(=O)NC3(C)CC3)cc3c2N2CC(C)(C)N=C2N(C)C3=O)CC1` [Example 46, N,N-dimethyl-4-(2,2,4-trimethyl-7-(N-(1-methylcyclopropyl)sulfamoyl)-5-oxo-1,2,4,5-tetrahydroimidazo[1,2-a]quinazolin-9-yl)piperazine-1-carboxamide] had an IC50 of under 100 nM.

For the molecule `Cn1cc(CN2C(=O)c3cc(S(=O)(=O)NC4(C)CC4)ccc3N3C2=NC[C@H]3C(F)F)cn1` [Example 47, (S)-1-(difluoromethyl)-4-((1-methyl-1H-pyrazol-4-yl)methyl)-N-(1-methylcyclopropyl)-5-oxo-1,2,4,5-tetrahydroimidazo[1,2-a]quinazoline-7-sulfonamide], the IC50 is under 100 nM.

Regarding `Cn1cc(CN2C(=O)c3cc(S(=O)(=O)NC4(C)CC4)ccc3N3C2=NC[C@H]3C2CCCC2)cn1` [Example 48, (R)-1-cyclopentyl-4-((1-methyl-1H-pyrazol-4-yl)methyl)-N-(1-methylcyclopropyl)-5-oxo-1,2,4,5-tetrahydroimidazo[1,2-a]quinazoline-7-sulfonamide], the IC50 is under 100 nM.

`[2H]C([2H])(c1cnn(C)c1)N1C(=O)c2cc(S(=O)(=O)NC3(C)CC3)ccc2N2C1=NC[C@H]2C#CC1(C)CC1` [Example 49, (R)-4-((1-methyl-1H-pyrazol-4-yl)methyl-d2)-N-(1-methylcyclopropyl)-1-((1-methylcyclopropyl)ethynyl)-5-oxo-1,2,4,5-tetrahydroimidazo[1,2-a]quinazoline-7-sulfonamide]: the IC50 was under 100 nM.
